Test results published in US20090018111A1, “Novel Antimicrobial Medicament” (priority 2004, published 2009).
Read-outs that look alike come from different tables or passages of the source.

Key:
Experiment in all cases: Sensitivity test (agar dilution)
P. aeruginosa IFO3451 = type: cell-based, Pseudomonas aeruginosa; details: Pseudomonas aeruginosa, P. aeruginosa IFO3451
Summary of the method: (§1)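 Strains were grown overnight at 37° C, brought to about 10^6 CFU/ml in gelatin-buffered saline, and ~5 μl inoculated onto MHA plates carrying two-fold dilution series of the test drug alone or in combination, following the Japan Chemotherapeutic Society agar dilution standard.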

P. aeruginosa TL-2666 = type: cell-based, Pseudomonas aeruginosa; details: Pseudomonas aeruginosa, P. aeruginosa TL-2666
Summary of the method: as §1

E. aerogenes ATCC13048 = type: cell-based, Enterobacter aerogenes; details: Klebsiella aerogenes, E. aerogenes ATCC13048
Summary of the method: as §1

S. epidermidis IAM1296 = type: cell-based, Staphylococcus epidermidis; details: Staphylococcus epidermidis, S. epidermidis IAM1296
Summary of the method: as §1

M. catarrhalis ATCC8176 = type: cell-based, Moraxella catarrhalis; details: Moraxella catarrhalis, M. catarrhalis ATCC8176
Summary of the method: as §1

M. catarrhalis ATCC25238 = type: cell-based, Moraxella catarrhalis; details: Moraxella catarrhalis, M. catarrhalis ATCC25238
Summary of the method: as §1

E. faecium ATCC19434 = type: cell-based, Enterococcus faecium; details: Enterococcus faecium, E. faecium ATCC19434
Summary of the method: as §1

B. subtilis ATCC6633 = type: cell-based, Bacillus subtilis; details: Bacillus subtilis, B. subtilis ATCC6633
Summary of the method: as §1

P. mirabiris GN2425 = type: cell-based, Proteus mirabilis; details: Proteus mirabilis, P. mirabiris GN2425
Summary of the method: as §1

S. maltophilia IID1275 = type: cell-based, Stenotrophomonas maltophilia; details: Stenotrophomonas maltophilia, S. maltophilia IID1275
Summary of the method: as §1

E. coli NIHJ JC-2 = type: cell-based, Escherichia coli; details: Escherichia coli, E. coli NIHJ JC-2
Summary of the method: as §1

E. coli ML1410 = type: cell-based, Escherichia coli; details: Escherichia coli, E. coli ML1410
Summary of the method: as §1

K. pneumoniae ATCC10031 = type: cell-based, Klebsiella pneumoniae; details: Klebsiella pneumoniae, K. pneumoniae ATCC10031
Summary of the method: as §1

CCN1CCN(C(=O)N[C@@H](C(=O)N[C@@H]2C(=O)N3[C@@H]2SC(C)(C)[C@@H]3C(=O)O)c2ccccc2)C(=O)C1=O [PIPC, piperacillin]
MIC (P. aeruginosa IFO3451; IFO3451, Concomitant (PIPC:SM = 1:1), read-out: MIC concomitant): 8 µg/mL | MIC (P. aeruginosa IFO3451; IFO3451, drug alone, read-out: MIC alone): 4 µg/mL | MIC (P. aeruginosa TL-2666; TL2666, Concomitant (PIPC:SM = 1:1), read-out: MIC concomitant): 16 µg/mL | MIC (P. aeruginosa TL-2666; TL2666, drug alone, read-out: MIC alone): 1 µg/mL | MIC (E. aerogenes ATCC13048; ATCC13048, Concomitant (PIPC:SM = 1:1), read-out: MIC concomitant): 8 µg/mL | MIC (E. aerogenes ATCC13048; ATCC13048, drug alone, read-out: MIC alone): 4 µg/mL | MIC (S. epidermidis IAM1296; IAM1296, Concomitant (PIPC:SM = 1:1), read-out: MIC concomitant): 0.016 µg/mL | MIC (S. epidermidis IAM1296; IAM1296, drug alone, read-out: MIC alone): 2 µg/mL | MIC (M. catarrhalis ATCC8176; ATCC8176, Concomitant (PIPC:SM = 1:1), read-out: MIC concomitant): ≤ 0.002 µg/mL | MIC (M. catarrhalis ATCC8176; ATCC8176, drug alone, read-out: MIC alone): 0.016 µg/mL | MIC (M. catarrhalis ATCC25238; ATCC25238, Concomitant (PIPC:SM = 1:1), read-out: MIC concomitant): ≤ 0.002 µg/mL | MIC (M. catarrhalis ATCC25238; ATCC25238, drug alone, read-out: MIC alone): 0.008 µg/mL | MIC (E. faecium ATCC19434; ATCC19434, Concomitant (PIPC:SM = 1:1), read-out: MIC concomitant): 0.125 µg/mL | MIC (E. faecium ATCC19434; ATCC19434, drug alone, read-out: MIC alone): 8 µg/mL | MIC (B. subtilis ATCC6633; ATCC6633, Concomitant (PIPC:SM = 1:1), read-out: MIC concomitant): ≤ 0.002 µg/mL | MIC (B. subtilis ATCC6633; ATCC6633, drug alone, read-out: MIC alone): 0.125 µg/mL | MIC (P. mirabiris GN2425; GN2425, read-out: MIC alone, drug alone): 0.25 µg/mL | MIC (P. mirabiris GN2425; GN2425, read-out: MIC concomitant, Concomitant (PIPC:SM = 1:1)): 0.063 µg/mL | MIC (S. maltophilia IID1275; IID1275, Concomitant (PIPC:SM = 1:1), read-out: MIC concomitant): > 32 µg/mL | MIC (S. maltophilia IID1275; IID1275, drug alone, read-out: MIC alone): > 32 µg/mL | MIC (E. coli NIHJ JC-2; NIHJJC2, Concomitant (PIPC:SM = 1:1), read-out: MIC concomitant): 0.063 µg/mL | MIC (E. coli NIHJ JC-2; NIHJJC2, drug alone, read-out: MIC alone): 0.25 µg/mL | MIC (E. coli ML1410; ML1410, Concomitant (PIPC:SM = 1:1), read-out: MIC concomitant): 0.125 µg/mL | MIC (E. coli ML1410; ML1410, drug alone, read-out: MIC alone): 2 µg/mL | MIC (K. pneumoniae ATCC10031; ATCC10031, Concomitant (PIPC:SM = 1:1), read-out: MIC concomitant): 0.016 µg/mL | MIC (K. pneumoniae ATCC10031; ATCC10031, drug alone, read-out: MIC alone): 0.25 µg/mL
